Measurements from US20250179027A1, “CYCLOALKYL OR HETEROCYCLYL SUBSTITUTED HETEROARYL COMPOUND, AND COMPOSITION AND USE THEREOF” (Shenzhen TargetRx, Inc., priority 2022, published 2025).

What was measured:
[1] = molecular target: T1, phosphorylated BTK Y223 in NIH/3T3 BTK WT cells (Homo sapiens, UniProt Q06187); assay: Phosphor-BTK(Y223) assay, NIH/3T3 BTK WT cells; assay type: cell-based; conditions: phosphorylated BTK Y223, NIH/3T3 BTK WT cells; read-out: NIH/3T3 BTK-WT pBTK IC50
T1 construct: expressed in transfected cells; host or cells: NIH/3T3 (mouse fibroblasts) engineered to express BTK WT
T1 sequence (Q06187 whole entry): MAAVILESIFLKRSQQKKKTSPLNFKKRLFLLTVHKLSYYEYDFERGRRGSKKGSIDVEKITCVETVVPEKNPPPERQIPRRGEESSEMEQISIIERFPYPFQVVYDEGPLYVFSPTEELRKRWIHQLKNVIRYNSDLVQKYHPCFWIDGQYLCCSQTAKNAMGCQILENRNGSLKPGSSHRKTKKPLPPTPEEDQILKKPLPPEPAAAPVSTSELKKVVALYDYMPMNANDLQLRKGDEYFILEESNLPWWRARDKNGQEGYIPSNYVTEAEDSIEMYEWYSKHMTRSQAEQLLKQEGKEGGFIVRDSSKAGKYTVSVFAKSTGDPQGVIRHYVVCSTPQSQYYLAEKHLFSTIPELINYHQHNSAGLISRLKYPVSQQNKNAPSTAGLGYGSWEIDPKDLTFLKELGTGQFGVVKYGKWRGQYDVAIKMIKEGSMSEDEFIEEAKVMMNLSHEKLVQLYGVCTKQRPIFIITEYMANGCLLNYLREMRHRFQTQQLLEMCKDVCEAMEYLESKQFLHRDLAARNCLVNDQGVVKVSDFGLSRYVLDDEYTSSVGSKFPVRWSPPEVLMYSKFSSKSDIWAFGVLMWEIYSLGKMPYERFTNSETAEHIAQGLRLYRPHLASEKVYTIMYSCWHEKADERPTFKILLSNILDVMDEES
Description: (§1) The purpose of this assay is to simply, quickly and directly detect the endogenous level of BTK in cells. The specific assay steps are as follows: Day 1: NIH/3T3 BTK WT cells (7.5 k/well) and NIH/3T3 BTK C481S cells (10 k/well) were plated in 96-well plates, respectively, and cultured overnight at 37° C. and 5% CO2.
(§2) • 1. A 3-fold final concentration gradient dilution of the compound was prepared, and 50 μL was added to 100 μL of cell culture; 0.5% DMSO was used as a positive control for cell growth. • 2. The plate was incubated at 37° C., 5% CO2 for 0.5 h. • 3. Na3VO4 with a final concentration of 1 mM was added, and incubated at 37° C. and 5% CO2 for 2 hours. • 4. During the incubation, the following reagents were prepared: 1× added lysis buffer: 3 vol ddH2O+1 vol 4× lysis buffer+100× blocking reagent. p-BTK (Y223) cryptate-antibody and p-BTK (Y223) d2-antibody working solutions: 1 volume of each cryopreserved antibody (stored at −20° C.) was added to 19 times volumes of assay buffer (stored at 4° C.). • 5. After the incubation, the medium was removed and 50 μL of 1× added lysis buffer was added; The mixture was centrifuged at 500 rpm for 30 min at room temperature. • 6. The lysate was mixed well and 16 μL was transferred to a 384-well plate; 1× added lysis buffer was used as a blank control. • 7. 4 μL of pre-mixed working solutions of the two antibodies (cryptate Ab:d2 Ab=1:1) were added and the plate was sealed. • 8. The plate was incubated overnight at room temperature.
(§3) Biotek cytation3.0 microplate reader was used to read the plate at 665 nm and 620 nm, and the ratio of 665/620 nm per well was calculated.
(§4) IC50 was calculated using GraphPad Prism 7.0 software.
(§5) The following nonlinear fitting formula was used to obtain the phosphorylated BTK Y223 IC50 (half phosphorylation inhibitory concentration) of the compounds:
(§6) [formula] • X: Compound concentration log value • Y: Inhibition rate (% inhibition)
(§7) The formula for calculating cell phosphorylation inhibition rate (% inhibition rate) was: […]

[2] = molecular target: T2, phosphorylated BTK Y223 in NIH/3T3 BTK C481S cells (Homo sapiens, UniProt Q06187, C481S); assay: Phosphor-BTK(Y223) assay, NIH/3T3 BTK C481S cells; assay type: cell-based; conditions: phosphorylated BTK Y223, NIH/3T3 BTK C481S cells; read-out: NIH/3T3 BTK-C481S pBTK IC50
T2 construct: expressed in transfected cells; host or cells: NIH/3T3 (mouse fibroblasts) engineered to express BTK C481S
T2 sequence (Q06187 whole entry C481S): as the sequence (Q06187 whole entry) above, with C481S counted along it
Description: as §1, §2, §3, §4, §5, §6, §7

Structure (SMILES) | IC50 [1] [nM] | IC50 [2] [nM]
COc1ccc(F)cc1C(=O)NCc1ccc(-c2nn([C@H]3CCC[C@H](O)C3)c3ncnc(N)c23)cc1 (racemic) [Example 9, trans-N-(4-(4-amino-1-(3-hydroxycyclohexanyl)-1H-pyrazolo[3,4-d]pyrimidin-3-yl)benzyl)-5-fluoro-2-methoxybenzamide] | ≤ 25 | ≤ 25
COc1ccc(F)cc1C(=O)NCc1ccc(-c2nn(C3CCCC(O)C3)c(N)c2C(N)=O)cc1 (single isomer, unassigned) [Example 2, 5-amino-3-(4-((5-fluoro-2-methoxybenzoylamino)methyl)phenyl)-1-(3-hydroxycyclohexyl)-1H-pyrazole-4-carboxamide] | 50 to 100 | 50 to 100
COc1ccc(F)cc1C(=O)NCc1ccc(-c2nn(C3CCCC(O)C3)c(N)c2C(N)=O)cc1 (single isomer, unassigned) [Example 3, 5-amino-3-(4-((5-fluoro-2-methoxybenzamido)methyl)phenyl)-1-(3-hydroxycyclohexyl)-1H-pyrazole-4-carboxamide] | 100 to 500 | 100 to 500
COc1ccc(F)cc1C(=O)NCc1ccc(-c2nn(C3CCC(CO)OC3)c(N)c2C(N)=O)cc1 (single isomer, unassigned) [Example 13, 5-amino-3-(4-((5-fluoro-2-methoxybenzamido)methyl)phenyl)-1-(6-(hydroxymethyl)tetrahydro-2H-pyran-3-yl)-1H-pyrazole-4-carboxamide] | 50 to 100 | 100 to 500
COc1ccc(F)cc1C(=O)NCc1ccc(-c2nn(C3CCC(CO)OC3)c(N)c2C(N)=O)cc1 (single isomer, unassigned) [Example 14, 5-amino-3-(4-((5-fluoro-2-methoxybenzamido)methyl)phenyl)-1-(6-(hydroxymethyl)tetrahydro-2H-pyran-3-yl)-1H-pyrazole-4-carboxamide] | 50 to 100 | 100 to 500
COc1ccc(F)cc1C(=O)NCc1ccc(-c2nn(C3CCC(CO)OC3)c3ncnc(N)c23)cc1 (single isomer, unassigned) [Example 16, N-(4-(4-amino-1-(6-(hydroxymethyl)tetrahydro-2H-pyran-3-yl)-1H-pyrazolo[3,4-d]pyrimidin-3-yl)benzyl)-5-fluoro-2-methoxybenzamide] | 50 to 100 | 100 to 500
COc1ccc(F)cc1C(=O)NCc1ccc(-c2nn(C3CCC(CO)OC3)c3ncnc(N)c23)cc1 (single isomer, unassigned) [Example 17, N-(4-(4-amino-1-(6-(hydroxymethyl)tetrahydro-2H-pyran-3-yl)-1H-pyrazolo[3,4-d]pyrimidin-3-yl)benzyl)-5-fluoro-2-methoxybenzamide] | 100 to 500 | 100 to 500
COc1ccc(F)cc1C(=O)NCc1ccc(-c2nn(C3CCC(CO)OC3)c3ncnc(N)c23)cc1 (single isomer, unassigned) [Example 19, N-(4-(4-amino-1-(6-(hydroxymethyl)tetrahydro-2H-pyran-3-yl)-1H-pyrazolo[3,4-d]pyrimidin-3-yl)benzyl)-5-fluoro-2-methoxybenzamide] | 25 to 50 | 50 to 100
COc1ccc(F)cc1C(=O)NCc1ccc(-c2nc(C3CCCC(O)C3)n3ccnc(N)c23)cc1 (single isomer, unassigned) [Example 21, N-(4-(8-amino-3-(3-hydroxycyclohexanyl)imidazo[1,5-a]pyrazin-1-yl)benzyl)-5-fluoro-2-methoxybenzamide] | 25 to 50 | 50 to 100
COc1ccc(F)cc1C(=O)NCc1ccc(-c2nn(C3CCCC(C)(O)C3)c3ncnc(N)c23)cc1 (single isomer, unassigned) [Example 23, N-(4-(4-amino-1-(3-hydroxy-3-methylcyclohexanyl)-1H-pyrazolo[3,4-d]pyrimidin-3-yl)benzyl)-5-fluoro-2-methoxybenzamide] | 25 to 50 | 25 to 50
COc1ccc(F)cc1C(=O)NCc1ccc(-c2nn(C3CCCC(C)(O)C3)c3ncnc(N)c23)cc1 (single isomer, unassigned) [Example 24, N-(4-(4-amino-1-(3-hydroxy-3-methylcyclohexanyl)-1H-pyrazolo[3,4-d]pyrimidin-3-yl)benzyl)-5-fluoro-2-methoxybenzamide] | ≤ 25 | 25 to 50
COc1ccc(F)cc1C(=O)NCc1ccc(-c2nn(C3CCCC(C)(O)C3)c3ncnc(N)c23)cc1 (single isomer, unassigned) [Example 25, N-(4-(4-amino-1-(3-hydroxy-3-methylcyclohexanyl)-1H-pyrazolo[3,4-d]pyrimidin-3-yl)benzyl)-5-fluoro-2-methoxybenzamide] | 25 to 50 | 25 to 50
COc1ccc(F)cc1C(=O)NCc1ccc(-c2nn(C3CCCC(C)(O)C3)c3ncnc(N)c23)cc1 (single isomer, unassigned) [Example 26, N-(4-(4-amino-1-(3-hydroxy-3-methylcyclohexanyl)-1H-pyrazolo[3,4-d]pyrimidin-3-yl)benzyl)-5-fluoro-2-methoxybenzamide] | 25 to 50 | 50 to 100

Further lines, results first:

IC50 [1] [nM] | IC50 [2] [nM] | Structure (SMILES)
≤ 25 | 25 to 50 | COc1ccc(F)cc1C(=O)NCc1ccc(-c2nn(C3CCCC(C)(O)C3)c3ncnc(N)c23)cc1 (single isomer, unassigned) [Example 27, N-(4-(4-amino-1-(3-hydroxy-3-methylcyclohexanyl)-1H-pyrazolo[3,4-d]pyrimidin-3-yl)benzyl)-5-fluoro-2-methoxybenzamide]
≤ 25 | 25 to 50 | COc1ccc(F)cc1C(=O)NCc1ccc(-c2nn(C3CCCC(C)(O)C3)c3ncnc(N)c23)cc1 (single isomer, unassigned) [Example 28, N-(4-(4-amino-1-(3-hydroxy-3-methylcyclohexanyl)-1H-pyrazolo[3,4-d]pyrimidin-3-yl)benzyl)-5-fluoro-2-methoxybenzamide]
25 to 50 | 50 to 100 | COc1ccc(F)cc1C(=O)NCc1ccc(-c2nn([C@@H]3C=C[C@@H](O)C3)c3ncnc(N)c23)cc1 (single isomer, unassigned) [Example 37, trans-N-(4-(4-amino-1-(4-hydroxycyclopent-2-en-1-yl)-1H-pyrazolo[3,4-d]pyrimidin-3-yl)benzyl)-5-fluoro-2-methoxybenzamide]
≤ 25 | 25 to 50 | COc1ccc(F)cc1C(=O)NCc1ccc(-c2nn([C@@H]3C=C[C@@H](O)C3)c3ncnc(N)c23)cc1 (single isomer, unassigned) [Example 38, trans-N-(4-(4-amino-1-(4-hydroxycyclopent-2-en-1-yl)-1H-pyrazolo[3,4-d]pyrimidin-3-yl)benzyl)-5-fluoro-2-methoxybenzamide]
100 to 500 | 100 to 500 | COc1ccc(F)cc1C(=O)NCc1ccc(-c2nn(C3CCC(CO)OC3)c3c(=O)[nH]nc(N)c23)cc1 (single isomer, unassigned) [Example 47, N-(4-(4-amino-1-(6-(hydroxymethyl)tetrahydro-2H-pyran-3-yl)-7-oxo-6,7-dihydro-1H-pyrazolo[3,4-d]pyridazin-3-yl)benzyl)-5-fluoro-2-methoxybenzamide]
100 to 500 | – | COc1ccc(F)cc1C(=O)NCc1ccc(-c2nn(C3CCC(CO)OC3)c3c(=O)[nH]nc(N)c23)cc1 (single isomer, unassigned) [Example 48, N-(4-(4-amino-1-(6-(hydroxymethyl)tetrahydro-2H-pyran-3-yl)-7-oxo-6,7-dihydro-1H-pyrazolo[3,4-d]pyridazin-3-yl)benzyl)-5-fluoro-2-methoxybenzamide]
